Experiments:
GSK-3 = settings: Ring et al. 2003 / Cline et al. 2002, cited from earlier work; for EC50: read-out: half-maximal effective concentration [EC50]
[1] = mouse, in vivo, ip, 30 mg/kg
Procedure: (b) Blood glucose levels in peripheral blood of recipient mice following 5-week in vivo administration of 30 mg/kg GSK-3 inhibitor or vehicle control. Error bars represent SEM (n=6).

SMILES: O=[N+]([O-])c1ccc(NCCNc2ncc(-c3ncc[nH]3)c(-c3ccc(Cl)cc3Cl)n2)nc1 [CHIR-837]
- selectivity for GSK-3 (GSK-3): > 5,000 fold
- EC50 (GSK-3): 375 nM

SMILES: Cc1c[nH]c(-c2cnc(NCCNc3ccc(C#N)cn3)nc2-c2ccc(Cl)cc2Cl)n1 [CHIR-911]
- glycemic state (blood glucose) of transplanted recipients [1]: maintaining a normoglycemic state

Reference: patent publication US8372397B2, “Methods for regulation of stem cells” (priority 2004, dated 2013)
